According to US9227967B2, “Inhibitor compounds of semicarbazide-sensitive amine oxidases” (Proximagen Limited, priority 2010, dated 2016):
Counter-ions that a name gives are not always drawn.

target: T1, human SSAO (Homo sapiens, UniProt Q16853); experiment: SSAO enzyme inhibition assay (benzylamine substrate; HRP-coupled hydrogen peroxide detection or 14C-benzaldehyde detection); type: biochemical; conditions: purified recombinantly expressed human SSAO, benzylamine as substrate, r.t.; read-out: SSAO inhibitory activity IC50
T1 construct: made in house
T1 sequence (Q16853 29-763 limits assumed): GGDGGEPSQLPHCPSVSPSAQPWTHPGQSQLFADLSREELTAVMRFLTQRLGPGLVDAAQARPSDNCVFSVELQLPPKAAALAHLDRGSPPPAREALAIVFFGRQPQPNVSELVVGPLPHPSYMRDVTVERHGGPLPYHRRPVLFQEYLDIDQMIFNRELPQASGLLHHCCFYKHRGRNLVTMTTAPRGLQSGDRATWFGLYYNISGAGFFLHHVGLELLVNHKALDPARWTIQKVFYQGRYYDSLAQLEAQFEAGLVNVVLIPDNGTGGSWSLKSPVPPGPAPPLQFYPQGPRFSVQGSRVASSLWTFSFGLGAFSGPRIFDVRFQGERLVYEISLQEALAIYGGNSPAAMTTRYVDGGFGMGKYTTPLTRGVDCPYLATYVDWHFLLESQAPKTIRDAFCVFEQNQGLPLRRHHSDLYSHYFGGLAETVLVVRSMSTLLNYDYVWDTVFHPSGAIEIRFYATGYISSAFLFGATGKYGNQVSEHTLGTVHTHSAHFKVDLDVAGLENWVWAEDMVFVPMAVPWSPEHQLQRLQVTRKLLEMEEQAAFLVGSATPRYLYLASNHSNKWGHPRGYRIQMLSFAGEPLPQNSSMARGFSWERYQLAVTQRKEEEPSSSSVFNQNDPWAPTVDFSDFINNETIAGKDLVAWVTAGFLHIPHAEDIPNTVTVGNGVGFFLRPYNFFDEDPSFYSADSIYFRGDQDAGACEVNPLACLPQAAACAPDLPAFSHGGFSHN
Method: All primary assays were performed at r.t. with purified recombinantly expressed human SSAO. Enzyme was prepared essentially as described in Öhman et al. (Protein Expression and Purification 46 (2006) 321-331). In addition, secondary- and selectivity assays were performed using SSAO prepared from various tissues or purified rat recombinant SSAO. The enzyme activity was assayed with benzylamine as substrate by measuring either benzaldehyde production, using ^14C-labeled substrate, or by utilizing the production of hydrogen peroxide in a horseradish peroxidise (HRP) coupled reaction. Briefly, test compounds were dissolved in dimethyl sulfoxide (DMSO) to a concentration of 10 mM. Dose-response measurements were assayed by either creating 1:10 serial dilutions in DMSO to produce a 7 point curve or by making 1:3 serial dilutions in DMSO to produce 11 point curves. The top concentrations were adjusted depending on the potency of the compounds and subsequent dilution in reaction buffer yielded a final DMSO concentration ≦2%.
In a horseradish peroxidise (HRP) coupled reaction, hydrogen peroxide oxidation of 10-acetyl-3,7-dihydroxyphenoxazine produced resorufin, which is a highly fluorescent compound (Zhout and Panchuk-Voloshina. Analytical Biochemistry 253 (1997) 169-174; Amplex® Red Hydrogen Peroxide/peroxidise Assay kit, Invitrogen A22188). Enzyme and compounds in 50 mM sodium phosphate, pH 7.4 were set to pre-incubate in flat-bottomed microtiter plates for approximately 15 minutes before initiating the reaction by addition of a mixture of HRP, benzylamine and Amplex reagent. Benzylamine concentration was fixed at a concentration corresponding to the Michaelis constant, determined using standard procedures. Fluorescence intensity was then measured at several time points during 1-2 hours, exciting at 544 nm n and reading the emission at 590 nm. For the human SSAO assay final concentrations of the reagents in the assay wells were: SSAO enzyme 1 μg/ml, benzylamine 100 μM, Amplex reagent 20 μM, HRP 0.1 U/mL and varying concentrations of test compound. The inhibition was measured as % decrease of the signal compared to a control without inhibitor (only diluted DMSO). The background signal from a sample containing no SSAO enzyme was subtracted from all data points. Data was fitted to a four parameter logistic model and IC50 values were calculated using the GraphPad Prism 4 or XLfit 4 programs.
SSAO activity was assayed using 14C-labeled benzylamine and analysed by measuring radioactive benzaldehyde. In a white 96-well optiplate (Packard), 20 μL of diluted test compound was pre-incubated at r.t. with 20 μL SSAO enzyme for approximately 15 minutes with continuous agitation. All dilutions were made with PBS. The reaction was initiated by adding 20 μL of the benzylamine substrate solution containing [7-14C] Benzylamine hydrochloride (CFA589, GE Healthcare). The plate was incubated for 1 hour as above after which the reaction was stopped by acidification (10 μL 1 M HCl). Then 90 μL Micro Scint-E solution (Perkin-Elmer) was added to each well and the plate was continuously mixed for 15 minutes. Phase separation occurred instantly and activity was read in a Topcount scintillation counter (Perkin-Elmer). In the final reaction well, human recombinant SSAO concentration was 10 μg/ml. In order to optimize sensitivity, the substrate concentration was decreased as compared to the HRP coupled assay in order to get a higher fraction of radioactive product. In the human SSAO assay, benzylamine concentration was 40 μM (0.2 μCi/mL). Data was analysed as above.

Row | IC50 | SMILES
1 | < 100 nM | NC1CCC(c2cn(-c3ccc(Cl)cc3)c3cnccc23)CC1 (mixture of isomers) [Compound 12, 4-[1-(4-Chlorophenyl)-1H-pyrrolo[2,3-c]pyridin-3-yl]cyclohexan-1-amine hydrochloride]
2 | 100 to 500 nM | Cc1cc(Cl)ccc1-n1cc(C2CCC(N)CC2)c2ccncc21 (mixture of isomers) [Compound 13, 4-[1-(4-Chloro-2-methylphenyl)-1H-pyrrolo[2,3-c]pyridin-3-yl]cyclohexan-1-amine hydrochloride]
3 | 500 to 2500 nM | Clc1ccc(-c2cn(CC3CCOC3)c3ccncc23)cc1 (centres unmarked) [Compound 1, 3-(4-Chlorophenyl)-1-(oxolan-3-ylmethyl)-1H-pyrrolo[3,2-c]pyridine]
4 | 500 to 2500 nM | CC(C)(C)OC(=O)N1CCC(n2cc(-c3ccc(Cl)cc3)c3cnccc32)CC1 [Compound 2, tert-Butyl 4-[3-(4-chlorophenyl)-1H-pyrrolo[3,2-c]pyridin-1-yl]piperidine-1-carboxylate]
5 | 100 to 500 nM | Clc1ccc(-c2cn(C3CCOC3)c3ccncc23)cc1 (centres unmarked) [Compound 3, 3-(4-Chlorophenyl)-1-(oxolan-3-yl)-1H-pyrrolo[3,2-c]pyridine]
6 | 100 to 500 nM | Clc1ccc(-c2cn(C3CCOCC3)c3ccncc23)cc1 [Compound 4, 3-(4-Chlorophenyl)-1-(oxan-4-yl)-1H-pyrrolo[3,2-c]pyridine]
7 | 100 to 500 nM | Clc1ccc(-c2cn(C3CCNCC3)c3ccncc23)cc1 [Compound 5, Bis(2,2,2-trifluoroacetic acid); 4-[3-(4-chlorophenyl)-1H-pyrrolo[3,2-c]pyridin-1-yl]piperidine]
8 | 500 to 2500 nM | Clc1ccc(-c2cn(C3CCNCC3)c3ccncc23)cc1Cl [Compound 6, 4-[3-(3,4-Dichlorophenyl)-1H-pyrrolo[3,2-c]pyridin-1-yl]piperidine hydrochloride]
9 | 500 to 2500 nM | O=C(CO)N1CCC(n2cc(-c3ccc(Cl)c(Cl)c3)c3cnccc32)CC1 [Compound 7, 1-{4-[3-(3,4-Dichlorophenyl)-1H-pyrrolo[3,2-c]pyridin-1-yl]piperidin-1-yl}-2-hydroxyethan-1-one]
10 | 100 to 500 nM | Clc1ccc(-n2cc(C3=CCNCC3)c3ccncc32)cc1 [Compound 8, 4-[1-(4-Chlorophenyl)-1H-pyrrolo[2,3-c]pyridin-3-yl]-hydrochloride]
11 | 500 to 2500 nM | CC(C)(C)OC(=O)N1CCC(c2cn(-c3ccc(Cl)cc3)c3cnccc23)CC1 [Compound 9, tert-Butyl 4-[1-(4-chlorophenyl)-1H-pyrrolo[2,3-c]pyridin-3-yl]piperidine-1-carboxylate]
12 | 100 to 500 nM | Clc1ccc(-n2cc(C3CCNCC3)c3ccncc32)cc1 [Compound 10, 1-(4-Chlorophenyl)-3-piperidin-4-yl-1H-pyrrolo[2,3-c]pyridine trifluoroacetate]
13 | 100 to 500 nM | CC(C)(C)OC(=O)NC1CCC(c2cn(-c3ccc(Cl)cc3)c3cnccc23)CC1 (centres unmarked) [Compound 11, tert-Butyl N-{4-[1-(4-chlorophenyl)-1H-pyrrolo[2,3-c]pyridin-3-yl]cyclohexyl}-carbamate]
14 | 100 to 500 nM | CN(C)CC(=O)N1CCC(c2cn(-c3ccc(Cl)cc3)c3cnccc23)CC1 [Compound 14, 1-{4-[1-(4-Chlorophenyl)-1H-pyrrolo[2,3-c]pyridin-3-yl]piperidin-1-yl}-2-(dimethyl-amino)ethan-1-one]
15 | < 100 nM | O=C(CO)N1CCC(c2cn(-c3ccc(Cl)cc3)c3cnccc23)CC1 [Compound 15, 1-{4-[1-(4-Chlorophenyl)-1H-pyrrolo[2,3-c]pyridine-3-yl]piperidin-1-yl}-2-hydroxyethan-1-one]
16 | < 100 nM | NCC(=O)N1CCC(c2cn(-c3ccc(Cl)cc3)c3cnccc23)CC1 [Compound 16, 2-Amino-{4-[1-(4-chlorophenyl)-1H-pyrrolo[2,3-c]pyridin-3-yl]piperidin-1-yl}-ethan-1-one hydrochloride]
17 | < 100 nM | NCCC(=O)N1CCC(c2cn(-c3ccc(Cl)cc3)c3cnccc23)CC1 [Compound 17, 3-Amino-1-{4-[1-(4-chlorophenyl)-1H-pyrrolo[2,3-c]pyridin-3-yl]piperidin-1-yl}propan-1-one hydrochloride]
18 | 100 to 500 nM | OCCN1CCC(c2cn(-c3ccc(Cl)cc3)c3cnccc23)CC1 [Compound 18, 2-{4-[1-(4-Chlorophenyl)-1H-pyrrolo[2,3-c]pyridin-3-yl]piperidin-1-yl}ethan-1-ol]
19 | 100 to 500 nM | Clc1ccc(-n2cc(C3CCN(Cc4cc[nH]n4)CC3)c3ccncc32)cc1 [Compound 19, 4-[1-(4-Chlorophenyl)-1H-pyrrolo[2,3-c]pyridin-3-yl]-1-(1H-pyrazol-3-ylmethyl)-piperidine]
20 | 100 to 500 nM | Cn1cc(CN2CCC(c3cn(-c4ccc(Cl)cc4)c4cnccc34)CC2)cn1 [Compound 20, 4-[1-(4-Chlorophenyl)-1H-pyrrolo[2,3-c]pyridin-3-yl]-1-[(1-methyl-1H-pyrazol-4-yl)-methyl]piperidine]
21 | 100 to 500 nM | N#CCCN1CCC(c2cn(-c3ccc(Cl)cc3)c3cnccc23)CC1 [Compound 21, 3-{4-[1-(4-Chlorophenyl)-1H-pyrrolo[2,3-c]pyridine-3-yl]piperidin-1-yl}propanenitrile hydrochloride]
22 | 100 to 500 nM | N#CCCCN1CCC(c2cn(-c3ccc(Cl)cc3)c3cnccc23)CC1 [Compound 22, 4-{4-[1-(4-Chlorophenyl)-1H-pyrrolo[2,3-c]pyridin-3-yl]piperidin-1-yl}butanenitrile hydrochloride]
23 | 500 to 2500 nM | OCc1cn(-c2ccc(Cl)cc2)c2cnccc12 [Compound 23, [1-(4-Chlorophenyl)-1H-pyrrolo[2,3-c]pyridin-3-yl]methanol]
24 | 500 to 2500 nM | CN1CCN(Cc2cn(-c3ccc(Cl)cc3)c3cnccc23)CC1 [Compound 24, 1-{[1-(4-Chlorophenyl)-1H-pyrrolo[2,3-c]pyridin-3-yl]methyl}-4-methylpiperazine]
25 | 500 to 2500 nM | CC(C)(C)OC(=O)N1CCN(Cc2cn(-c3ccc(Cl)cc3)c3cnccc23)CC1 [Compound 25]
26 | 500 to 2500 nM | Clc1ccc(-n2cc(CN3CCNCC3)c3ccncc32)cc1 [Compound 26, 1-{[1-(4-Chlorophenyl)-1H-pyrrolo[2,3-c]pyridin-3-yl]methyl}piperazine]
27 | 500 to 2500 nM | OCCC1CCN(Cc2cn(-c3ccc(Cl)cc3)c3cnccc23)CC1 [Compound 27, 2-(1-{[1-(4-Chlorophenyl)-1H-pyrrolo[2,3-c]pyridin-3-yl]methyl}piperidin-4-yl)ethan-1-ol]
28 | 100 to 500 nM | OCC1CCN(Cc2cn(-c3ccc(Cl)cc3)c3cnccc23)CC1 [Compound 28, (1-{[1-(4-Chlorophenyl)-1H-pyrrolo[2,3-c]pyridin-3-yl]methyl}piperidin-4-yl)methanol]
29 | 500 to 2500 nM | Clc1ccc(-n2cc(CN3CCOCC3)c3ccncc32)cc1 [Compound 29, 4-{[1-(4-Chlorophenyl)-1H-pyrrolo[2,3-c]pyridin-3-yl]methyl}morpholine]
